Laboratory results from PMC9046087, “Structural basis of tethered agonism of the adhesion GPCRs ADGRD1 and ADGRF1” (Nature, 2022).
Where a chain is given by its changes, count along the chain named. Ends that are not written are not given here.

Experiments:
ADGRF1 [1] = molecular target: T1, ADGRF1 (Homo sapiens, UniProt Q5T601, R623A); assay: BRET assay using TRUPATH biosensors, Gs activation of ADGRF1; format: cell-based; conditions: Gs, ADGRF1 R623^2.46bA, n = 3
T1 construct: Flag (N); expressed in transfected cells; host or cells: HEK293F
T1 sequence (Q5T601 20-910 R623A): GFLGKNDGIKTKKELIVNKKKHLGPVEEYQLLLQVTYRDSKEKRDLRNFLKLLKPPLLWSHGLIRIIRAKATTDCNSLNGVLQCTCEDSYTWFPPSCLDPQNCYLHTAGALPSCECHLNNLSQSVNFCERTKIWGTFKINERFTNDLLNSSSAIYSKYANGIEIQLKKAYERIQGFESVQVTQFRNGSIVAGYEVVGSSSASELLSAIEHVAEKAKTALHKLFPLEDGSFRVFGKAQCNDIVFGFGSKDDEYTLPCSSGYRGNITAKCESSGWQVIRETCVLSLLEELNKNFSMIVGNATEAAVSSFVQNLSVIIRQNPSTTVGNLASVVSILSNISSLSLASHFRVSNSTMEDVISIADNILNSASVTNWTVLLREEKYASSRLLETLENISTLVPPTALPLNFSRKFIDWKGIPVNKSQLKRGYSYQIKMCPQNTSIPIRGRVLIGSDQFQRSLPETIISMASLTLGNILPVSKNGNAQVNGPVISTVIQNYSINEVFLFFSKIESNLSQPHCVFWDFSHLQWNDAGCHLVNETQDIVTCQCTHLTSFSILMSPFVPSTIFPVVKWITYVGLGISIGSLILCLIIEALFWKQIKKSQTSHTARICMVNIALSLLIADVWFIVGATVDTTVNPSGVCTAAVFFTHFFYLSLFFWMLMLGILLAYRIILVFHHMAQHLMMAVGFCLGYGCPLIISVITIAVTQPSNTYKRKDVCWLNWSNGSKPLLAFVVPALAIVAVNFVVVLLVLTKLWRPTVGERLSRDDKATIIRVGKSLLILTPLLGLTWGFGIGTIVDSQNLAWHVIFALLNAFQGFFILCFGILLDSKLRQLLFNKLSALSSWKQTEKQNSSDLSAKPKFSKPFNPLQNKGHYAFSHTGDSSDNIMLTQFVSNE
Procedure: (§1) To study the synthetic stalk peptide-induced G protein activation of ADGRD1 and ADGRF1, a BRET assay using TRUPATH biosensors was conducted to measure the proximal interaction between RLuc8 fused to the Gα subunit and GFP2 fused to the Gγ subunit. The TRUPATH suite of biosensors was obtained from Addgene (Addgene kit no. 1000000163) as a gift from B. Roth, including GαsS-RLuc8, Gαi1-RLuc8, Gβ3 and Gγ9-GFP2 as previously described.
(§2) The wild-type or mutant ADGRD1 and ADGRF1 were transiently co-transfected with plasmids encoding Gα-RLuc8 (GαsS-RLuc8 for Gs activation assay; Gαi1-RLuc8 for Gi activation assay), Gβ3 and Gγ9-GFP2 at a ratio of 2:1:1:1 (receptor plasmid, 800 ng; G protein subunit plasmids, 400 ng for each) in 2 ml HEK293F cells at a density of 1.2 × 10^6 cells per ml. Cell cultivation and receptor surface expression measurement were performed as described above. The cells were plated into 96-well white plates (40,000 cells per well) in 60 μl of assay buffer and incubated at 37 °C for 30 min. Then 10 μl of freshly prepared 50 μM coelenterazine 400a (Nanolight Technologies) was added. […] The cells were stimulated with 30 μl of synthetic stalk peptide at different concentrations and the BRET signals were monitored continuously five times. The last measurements were used in data analysis. The BRET ratios were calculated as the ratio of the GFP2 emission to RLuc8 emission.

ADGRF1 [2] = molecular target: T2, ADGRF1 (Homo sapiens, UniProt Q5T601, L769A); assay: as above; format: cell-based
T2 construct: Flag (N); expressed in transfected cells; host or cells: HEK293F
T2 sequence (Q5T601 20-910 L769A): T1 sequence (Q5T601 20-910 R623A) with A604R, L750A
Procedure: as §1, §2

[3] = read-out: pEC50 (mean ± s.e.m.) (converted)

- Emax (mean ± s.e.m.) (ADGRF1 [1]): 57 ± 10 % of WT
- EC50 (ADGRF1 [1]; [3]): 148 nM
- Emax (mean ± s.e.m.) (ADGRF1 [2]; Gs, ADGRF1 L769^5.61bA, n = 3): 73 ± 11 % of WT
- EC50 (ADGRF1 [2]; [3]): 151 nM
Sequence: TSFSILMSPFVP [pF1]
